Source: ChEMBL document CHEMBL1155056, “4-(Anilino)pyrrole-2-carboxamides: Novel non-steroidal/non-anilide type androgen antagonists effective upon human prostate tumor LNCaP cells with mutated nuclear androgen receptor” (Bioorg Med Chem, 2008)
Activity calls are given as the source filed them. The rule behind the calls is not given here.

tested on: Androgen receptor (Homo sapiens), P10275 [T878A]; assay: Antagonist activity at human recombinant androgen receptor T877A mutant assessed as inhibition of prostate specific antigen production in human LNCaP cells by ELISA; format: functional, cell-based; details: not given
Sequence (P10275 whole entry T878A): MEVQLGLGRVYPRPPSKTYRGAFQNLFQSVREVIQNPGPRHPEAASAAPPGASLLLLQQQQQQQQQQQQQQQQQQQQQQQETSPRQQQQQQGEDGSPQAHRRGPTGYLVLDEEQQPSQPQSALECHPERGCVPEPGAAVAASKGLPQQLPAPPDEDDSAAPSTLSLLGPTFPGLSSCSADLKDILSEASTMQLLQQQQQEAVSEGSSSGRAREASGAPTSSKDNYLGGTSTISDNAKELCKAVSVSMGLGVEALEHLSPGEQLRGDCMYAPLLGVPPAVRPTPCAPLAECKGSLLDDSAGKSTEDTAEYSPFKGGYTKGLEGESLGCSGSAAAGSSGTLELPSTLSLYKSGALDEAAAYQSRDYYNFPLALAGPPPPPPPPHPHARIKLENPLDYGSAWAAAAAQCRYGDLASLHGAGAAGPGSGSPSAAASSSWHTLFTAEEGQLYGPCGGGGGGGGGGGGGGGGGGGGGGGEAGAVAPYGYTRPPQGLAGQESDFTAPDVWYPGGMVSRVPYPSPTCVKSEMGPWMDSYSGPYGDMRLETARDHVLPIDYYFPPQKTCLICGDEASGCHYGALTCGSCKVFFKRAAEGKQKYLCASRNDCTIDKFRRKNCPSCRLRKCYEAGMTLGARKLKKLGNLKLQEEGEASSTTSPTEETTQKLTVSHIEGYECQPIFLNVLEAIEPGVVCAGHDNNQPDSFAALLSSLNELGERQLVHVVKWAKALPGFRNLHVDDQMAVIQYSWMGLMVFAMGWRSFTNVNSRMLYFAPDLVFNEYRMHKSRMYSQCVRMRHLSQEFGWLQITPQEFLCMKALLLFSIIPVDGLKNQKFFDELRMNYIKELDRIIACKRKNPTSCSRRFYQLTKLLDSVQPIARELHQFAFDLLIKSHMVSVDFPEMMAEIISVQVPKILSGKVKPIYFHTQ

In the case of `CC(=O)c1ccc(N(Cc2ccccc2)c2cc(C(=O)N3CCCC3)n(C)c2)cc1`, the Activity is reported as “inactive”.
For `COC(=O)c1ccc(N(Cc2ccccc2)c2cc(C(=O)N3CCCC3)n(C)c2)cc1`, the Activity was “inactive”.

molecular target: T1, Androgen receptor (Homo sapiens) (UniProt P10275); details: 30 uM
T1 sequence (whole entry): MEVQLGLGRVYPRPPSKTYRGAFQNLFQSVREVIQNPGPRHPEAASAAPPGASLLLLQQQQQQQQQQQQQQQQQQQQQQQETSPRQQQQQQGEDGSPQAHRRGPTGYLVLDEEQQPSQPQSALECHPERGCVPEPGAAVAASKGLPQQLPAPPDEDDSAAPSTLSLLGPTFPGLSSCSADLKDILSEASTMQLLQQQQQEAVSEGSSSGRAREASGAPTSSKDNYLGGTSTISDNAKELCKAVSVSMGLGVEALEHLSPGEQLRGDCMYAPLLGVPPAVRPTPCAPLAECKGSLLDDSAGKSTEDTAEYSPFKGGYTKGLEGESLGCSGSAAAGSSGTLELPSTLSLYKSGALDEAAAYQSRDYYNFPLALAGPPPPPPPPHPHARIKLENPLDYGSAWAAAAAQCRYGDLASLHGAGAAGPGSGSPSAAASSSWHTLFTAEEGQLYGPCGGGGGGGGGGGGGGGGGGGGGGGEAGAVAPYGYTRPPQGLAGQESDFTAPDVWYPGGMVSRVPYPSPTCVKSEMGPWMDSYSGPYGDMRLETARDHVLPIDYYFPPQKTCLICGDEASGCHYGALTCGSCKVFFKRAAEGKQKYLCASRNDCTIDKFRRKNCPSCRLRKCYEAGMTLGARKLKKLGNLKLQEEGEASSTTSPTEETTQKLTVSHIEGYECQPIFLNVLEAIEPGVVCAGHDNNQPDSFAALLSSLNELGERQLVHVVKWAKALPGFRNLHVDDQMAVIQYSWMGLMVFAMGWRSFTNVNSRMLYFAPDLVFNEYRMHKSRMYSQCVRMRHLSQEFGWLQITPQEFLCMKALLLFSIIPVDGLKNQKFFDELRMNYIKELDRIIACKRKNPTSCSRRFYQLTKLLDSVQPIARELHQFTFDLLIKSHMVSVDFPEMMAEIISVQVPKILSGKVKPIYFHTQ
Description: Displacement of [3H]testosterone from wild type human androgen receptor at 30 uM

In the case of `Cn1cc(N(Cc2ccccc2)c2ccc([N+](=O)[O-])c(C(F)(F)F)c2)cc1C(=O)N1CCCC1`, the inhibition is reported as 52%.

molecular target: T1, Androgen receptor (Homo sapiens); assay: Displacement of [3H]testosterone from wild type human androgen receptor at 3 uM; details: not given

Going from `Cc1cc(C)cc(N(Cc2ccccc2)c2cc(C(=O)N3CCCC3)n(C)c2)c1` to `Cn1cc(N(Cc2ccccc2)c2ccc([N+](=O)[O-])cc2)cc1C(=O)N1CCc2ccccc21`, the inhibition rises from 20% to 25%.

molecular target: T2, Androgen receptor (Homo sapiens, UniProt P10275); details: not given
T2 sequence (P10275 whole entry): T1 sequence (whole entry)

Compared with `Cc1cc(C)cc(N(Cc2ccc(CO)cc2)c2cc(C(=O)N3CCCC3)n(C)c2)c1`, `Cc1cc(C)cc(N(Cc2ccc(O)cc2)c2cc(C(=O)N3CCCC3)n(C)c2)c1` is 3.2-fold lower in Ki: 2200 nM for the first, 690 nM for the second.

First: Cc1cc(C)cc(N(CC2CCCCC2)c2cc(C(=O)N3CCCC3)n(C)c2)c1
Second: CCN(c1cc(C)cc(C)c1)c1cc(C(=O)N2CCCC2)n(C)c1
The Ki of the first is 5.5-fold lower: 490 nM for the first, 2700 nM for the second.

Going from `CN(c1ccc([N+](=O)[O-])cc1)c1cc(C(=O)N2CCCC2)n(C)c1` to `CCN(c1ccc([N+](=O)[O-])cc1)c1cc(C(=O)N2CCCC2)n(C)c1`, the Ki falls from 3600 nM to 2000 nM (1.8-fold). The second binds more tightly here.

Going from `Cn1cc(N(CC2CCCCC2)c2ccc([N+](=O)[O-])cc2)cc1C(=O)N1CCCC1` to `Cn1cc(N(Cc2ccccc2)c2ccc([N+](=O)[O-])cc2)cc1C(=O)N1CCCCC1`, the Ki falls from 520 nM to 110 nM (4.7-fold). The second binds more tightly here.

Going from `Cn1cc(N(Cc2ccc(CO)cc2)c2ccc([N+](=O)[O-])cc2)cc1C(=O)N1CCCC1` to `Cn1cc(N(Cc2ccc(O)cc2)c2ccc([N+](=O)[O-])cc2)cc1C(=O)N1CCCC1`, the Ki falls from 1800 nM to 730 nM (2.5-fold).

First: Cn1cc(N(Cc2ccccc2)c2ccc([N+](=O)[O-])cc2)cc1C(N)=O
Second: Cn1cc(N(Cc2ccccc2)c2ccc([N+](=O)[O-])cc2)cc1C(=O)O
The Ki of the first is 2.9-fold higher: 220 nM for the first, 75 nM for the second. The second binds more tightly here.

First: CCN(CC)C(=O)c1cc(N(Cc2ccccc2)c2ccc([N+](=O)[O-])cc2)cn1C
Second: CCOC(=O)c1cc(N(Cc2ccccc2)c2ccc([N+](=O)[O-])cc2)cn1C
The Ki of the first is 1.8-fold lower: 100 nM for the first, 180 nM for the second. The first binds more tightly here.

`O=C(c1cccc(N(Cc2ccccc2)c2ccc([N+](=O)[O-])cc2)c1)N1CCCC1` and `O=C(c1ccc(N(Cc2ccccc2)c2ccc([N+](=O)[O-])cc2)cc1)N1CCCC1` are within 1.5-fold of each other in Ki: 370 nM for the first, 340 nM for the second.

`Cn1cc(N(Cc2ccccc2)c2ccc([N+](=O)[O-])cc2)cc1C(=O)N1CCCC1` and `Cn1cc(N(Cc2ccccc2)c2ccc(C#N)cc2)cc1C(=O)N1CCCC1` are within 1.5-fold of each other in Ki: 110 nM for the first, 130 nM for the second.

Going from `Cn1cc(N(Cc2ccccc2)c2ccccc2[N+](=O)[O-])cc1C(=O)N1CCCC1` to `CC(=O)c1ccc(N(Cc2ccccc2)c2cc(C(=O)N3CCCC3)n(C)c2)cc1`, the Ki falls from 1300 nM to 140 nM (9.3-fold). The second binds more tightly here.

`Cc1ccc(CN(c2ccc([N+](=O)[O-])cc2)c2cc(C(=O)N3CCCC3)n(C)c2)cc1` and `Cn1cc(N(Cc2ccc(F)cc2)c2ccc([N+](=O)[O-])cc2)cc1C(=O)N1CCCC1` are within 1.5-fold of each other in Ki: 810 nM for the first, 800 nM for the second.

Compared with `Cc1cc(C)cc(N(Cc2ccccc2)c2cc(C(=O)N3CCCC3)n(C)c2)c1`, `COC(=O)c1ccc(N(Cc2ccccc2)c2cc(C(=O)N3CCCC3)n(C)c2)cc1` is 1.9-fold lower in Ki: 350 nM for the first, 180 nM for the second. The second binds more tightly here.

First: Cc1cc(C)cc(N(c2cc(C(=O)N3CCCC3)n(C)c2)C(C)C)c1
Second: Cc1cc(C)cc(N(C)c2cc(C(=O)N3CCCC3)n(C)c2)c1
The Ki of the first is 2.3-fold lower: 2700 nM for the first, 6100 nM for the second. The first binds more tightly here.

Compared with `Cn1cc(N(Cc2ccccc2)c2ccc([N+](=O)[O-])cc2)cc1CO`, `Cn1cc(N(Cc2ccccc2)c2ccc(C(F)(F)F)cc2)cc1C(=O)N1CCCC1` is 1.6-fold higher in Ki: 170 nM for the first, 270 nM for the second.

Compared with `Cc1cc(C)cc(Nc2cc(C(=O)N3CCCC3)n(C)c2)c1`, `Cn1cc(Nc2ccc([N+](=O)[O-])cc2)cc1C(=O)N1CCCC1` is 1.6-fold higher in Ki: 3100 nM for the first, 4900 nM for the second. The first binds more tightly here.

With `CC(C)N(c1ccc([N+](=O)[O-])cc1)c1cc(C(=O)N2CCCC2)n(C)c1` the Ki was 3400 nM.

tested on: LNCaP; assay: Antiproliferative activity against human LNCaP cells; format: functional, cell-based; details: not given

`Cn1cc(N(Cc2ccccc2)c2ccc([N+](=O)[O-])cc2)cc1C(=O)N1CCCC1` was tested, and the Activity was “Active”.
For `CC(C)(O)C(=O)Nc1ccc([N+](=O)[O-])c(C(F)(F)F)c1`, the Activity was “inactive”.
`C[C@](O)(CS(=O)(=O)c1ccc(F)cc1)C(=O)Nc1ccc(C#N)c(C(F)(F)F)c1` was tested, and the Activity was “Active”.

molecular target: T1, Androgen receptor (Homo sapiens); assay: Antagonist activity at wild type human recombinant androgen receptor assessed as inhibition of testosterone-induced growth of mouse androgen dependent SC3 cells at 1 uM by WST-1 method; format: functional, cell-based; details: SC-3

`Cn1cc(N(Cc2ccccc2)c2ccccc2[N+](=O)[O-])cc1C(=O)N1CCCC1` gave an inhibition of 27%.

molecular target: Androgen receptor (Homo sapiens, UniProt P10275, T878A); assay: Displacement of [3H]testosterone from human recombinant androgen receptor T877A mutant expressed in LNCaP cells; details: not given
Sequence (P10275 whole entry T878A): as the sequence (P10275 whole entry T878A) above

Going from `Cn1cc(N(Cc2ccc(CO)cc2)c2ccc([N+](=O)[O-])cc2)cc1C(=O)N1CCCC1` to `Cn1cc(N(Cc2ccc(O)cc2)c2ccc([N+](=O)[O-])cc2)cc1C(=O)N1CCCC1`, the Ki falls from 1400 nM to 330 nM (4.2-fold). The second binds more tightly here.

First: CCN(CC)C(=O)c1cc(N(Cc2ccccc2)c2ccc([N+](=O)[O-])cc2)cn1C
Second: CCOC(=O)c1cc(N(Cc2ccccc2)c2ccc([N+](=O)[O-])cc2)cn1C
The Ki of the first is 2.3-fold lower: 3 nM for the first, 7 nM for the second. The first binds more tightly here.

Going from `Cn1cc(N(Cc2ccccc2)c2ccc([N+](=O)[O-])cc2)cc1C(=O)N1CCCC1` to `Cn1cc(N(Cc2ccccc2)c2ccc([N+](=O)[O-])cc2)cc1C(=O)N1CCCCC1`, the Ki rises from 5 nM to 27 nM (5.4-fold). The first binds more tightly here.

First: Cn1cc(N(Cc2ccccc2)c2ccc([N+](=O)[O-])cc2)cc1C(=O)O
Second: Cn1cc(N(Cc2ccccc2)c2ccc([N+](=O)[O-])cc2)cc1C(=O)N1CCc2ccccc21
The Ki of the first is 3-fold lower: 3 nM for the first, 9 nM for the second. The first binds more tightly here.

`Cc1ccc(CN(c2ccc([N+](=O)[O-])cc2)c2cc(C(=O)N3CCCC3)n(C)c2)cc1` and `Cn1cc(N(Cc2ccc(F)cc2)c2ccc([N+](=O)[O-])cc2)cc1C(=O)N1CCCC1` are within 1.5-fold of each other in Ki: 130 nM for the first, 140 nM for the second.

`CC(=O)c1ccc(N(Cc2ccccc2)c2cc(C(=O)N3CCCC3)n(C)c2)cc1` and `COC(=O)c1ccc(N(Cc2ccccc2)c2cc(C(=O)N3CCCC3)n(C)c2)cc1` are within 1.5-fold of each other in Ki: 130 nM for the first, 180 nM for the second.

Compared with `Cn1cc(N(Cc2ccccc2)c2ccc(C#N)cc2)cc1C(=O)N1CCCC1`, `Cn1cc(N(Cc2ccccc2)c2ccc(C(F)(F)F)cc2)cc1C(=O)N1CCCC1` is 6-fold higher in Ki: 6 nM for the first, 36 nM for the second. The first binds more tightly here.

With `Cn1cc(N(Cc2ccccc2)c2ccc([N+](=O)[O-])c(C(F)(F)F)c2)cc1C(=O)N1CCCC1` the Ki was 49 nM.
